Data on 27 compounds can be found in ChEMBL document CHEMBL6182828, “Medicinal chemistry-based perspectives on thiophene and its derivatives: exploring structural insights to discover plausible druggable leads” (RSC Med Chem, 2025).

pIC50: −log10 of the molar value. In brackets after ≈: the same amount, converted by molar mass.

Data set [1] can be described thus: Half life in po dosed human plasma. The format is ADME, organism-based.
Data set [2] has as its target Beta-secretase 1 (Homo sapiens, UniProt P56817). Kind of data set: Inhibition of human recombinant BACE1 expressed in HEK293 cells by FRET assay. The format is cell-based.
For data set [3], the system named is Escherichia coli. Briefly: Antimicrobial activity against Escherichia coli assessed as diameter of zone of inhibition. The format is functional.
The subject of data set [4] is HCT-116. Kind of data set: Cytotoxicity against human HCT-116 cells assessed as reduction in cell growth incubated for 24 hrs by MTT assay. The settings on record: HCT-116, 24 h. The format is functional, cell-based.
The test system of data set [5] is SF-295. Briefly: Cytotoxicity against human SF-295 cells assessed as reduction in cell growth incubated for 24 hrs by MTT assay. The format is functional, cell-based. The note with it: SF-295, 24 h. A general note: Tetrazolium assays rely on reduction of a dye to a coloured formazan, in cell work by metabolically active cells.
The test system of data set [6] is HL-60. Briefly: Cytotoxicity against human HL-60 cells assessed as reduction in cell growth incubated for 24 hrs by MTT assay. The format is functional, cell-based. The settings on record: HL-60, 24 h.
Data set [7] deals with OVCAR-8. Kind of data set: Cytotoxicity against human OVCAR-8 cells assessed as reduction in cell growth incubated for 24 hrs by MTT assay. The format is functional, cell-based. The settings on record: OVCAR-8, 24 h.
The subject of data set [8] is Rattus norvegicus. Briefly: Anti-inflammatory activity against carrageenan-induced paw edema in Albino rat assessed as inhibition of paw edema at 50 mg/kg, po relative to control. The format is functional. Set-up: scale not given: the % may be the effect or the level left. In general terms: The carrageenan paw model is a standard test of acute inflammation.
The subject of data set [9] is Rattus norvegicus. Kind of data set: Anti-inflammatory activity against carrageenan-induced paw edema in Wistar rat assessed as inhibition of paw edema at 20 mg/kg, po by H and E staining based analysis relative to control. The format is functional. Set-up: scale not given: the % may be the effect or the level left.
In data set [10] the test system is MCF7. Kind of data set: Cytotoxicity against human MCF7 cells assessed as reduction in cell viability. The format is functional, cell-based.
A short description of data set [11]: Half life in human at 15 mg/kg, po. The settings on record: in vivo. The format is ADME, organism-based.
Data set [12] deals with T1, Acetylcholinesterase (Homo sapiens, UniProt P22303). Kind of data set: Inhibition of AChE (unknown origin).
For data set [13], the target named is Cholinesterase (Homo sapiens, UniProt P06276). Kind of data set: Inhibition of BChE (unknown origin).
Data set [14] is described as follows: clinical. The settings on record: human.
The nature of data set [15]: Half life in human at 0.7 mg/kg, po. The note with it: in vivo.
In data set [16] the test system is HepG2. Briefly: Antiproliferative activity against human HepG2 cells assessed as reduction in cell growth measured for 96 hrs by Neutral red uptake assay. The format is functional, cell-based. The note with it: HepG2, 96 h.
The nature of data set [17]: Terminal half life in human at 2.5 mg/kg, po. The format is ADME, organism-based. The note with it: in vivo, read-out: beta t1/2 (converted).
Data set [18] in a line: Half life of compound. The format is physicochemical.
Data set [19] has as its system Bacillus subtilis. Kind of data set: Antibacterial activity against Bacillus subtilis ATCC 6633 assessed as zone of inhibition. The format is functional.
The test system of data set [20] is Staphylococcus aureus. Briefly: Antibacterial activity against Staphylococcus aureus assessed as zone of inhibition at 100 ug/ml by cup-plate agar diffusion method. The format is functional. The settings on record: read-out: IZ. A general note: In agar diffusion tests the substance spreads into inoculated agar from a disc or well.
Data set [21] relates to Salmonella paratyphi. Briefly: […] activity against Salmonella enterica subsp. enterica serovar Paratyphi A assessed as zone of inhibition at 100 ug/ml by cup-plate agar diffusion method. The format is functional. The note with it: read-out: IZ.
Data set [22] deals with Aspergillus niger. Kind of data set: Antifungal activity against Aspergillus niger assessed as diameter of zone of inhibition at 100 ug/ml by cup-plate agar diffusion method. The format is functional. The note with it: read-out: IZ.
Data set [23] in a line: Elimination half life in human at 0.8 mg/kg, sc. The note with it: in vivo, read-out: LambdaZ (converted). The format is ADME, organism-based.
Data set [24] relates to SMMC-7721. Briefly: cells. The settings on record: Homo sapiens, SMMC-7721, 72 h.
Description: Antiproliferative activity against human SMMC-7721 cells assessed as reduction in cell viability measured for 72 hrs by MTT assay
Data set [25] has as its target Amine oxidase [flavin-containing] B (Homo sapiens, UniProt P27338). Kind of data set: Inhibition of human recombinant MAO-B extracted from baculovirus infected in BTI-TN-5B1-4 insect cells incubated for 20 mins by Amplex Red reagent based fluorescence analysis. The format is cell-based.
The test system of data set [26] is Penicillium chrysogenum. Briefly: Antifungal activity against Penicillium chrysogenum assessed as diameter of zone of inhibition at 100 ug/ml by cup-plate agar diffusion method. The format is functional. The note with it: read-out: IZ.
A short description of data set [27]: Terminal half life in human plasma. The note with it: read-out: beta t1/2 (converted). The format is ADME, cell-free.
Data set [28] concerns MIA PaCa-2. Briefly: Cytotoxicity against human MIA PaCa-2 cells. The format is functional, cell-based.
The nature of data set [29]: Inhibition of EGFR2 (unknown origin). Also on record: species or system Homo sapiens.
The test system of data set [30] is DLD-1. Kind of data set: Cytotoxicity against human DLD-1 cells assessed as reduction in cell growth incubated for 24 hrs by SRB assay. The format is functional, cell-based. The settings on record: DLD-1, 24 h.
Data set [31] concerns HA22T cell line. Kind of data set: Cytotoxicity against human HA22T cell line assessed as reduction in cell growth incubated for 24 hrs by SRB assay. The format is functional, cell-based.
Data set [32] has as its system HepG2. Kind of data set: Cytotoxicity against human HepG2 cells assessed as reduction in cell growth incubated for 24 hrs by SRB assay. The settings on record: HepG2, 24 h. The format is functional, cell-based.
Data set [33] relates to NUGC-3. Kind of data set: Cytotoxicity against human NUGC-3 cells assessed as reduction in cell growth incubated for 24 hrs by SRB assay. The format is functional, cell-based. The note with it: NUGC-3, 24 h.
Data set [34] relates to MCF7. Kind of data set: Cytotoxicity against human MCF7 cells assessed as reduction in cell growth incubated for 24 hrs by SRB assay. The note with it: MCF7, 24 h. The format is functional, cell-based.
The nature of data set [35]: Cytotoxicity against human WI-38 cells assessed as reduction in cell growth incubated for 24 hrs by SRB assay. The format is toxicity, cell-based.
In data set [36] the test system is HONE1 cell line. Kind of data set: Cytotoxicity against human HONE1 cell line assessed as reduction in cell growth incubated for 24 hrs by SRB assay. The format is toxicity, cell-based. The note with it: HONE1, 24 h.
Data set [37] is described as follows: Terminal half life in human. The note with it: read-out: beta t1/2 (converted). The format is ADME.
Data set [38] deals with T1, Acetylcholinesterase. Kind of data set: Inhibition of AChE (unknown origin) using acetylthiocholine iodide as substrate by Ellman's spectrophotometric analysis.
The test system of data set [39] is A549. Briefly: Growth inhibition of human A549 cells by SRB assay. The format is functional.
A short description of data set [40]: Half life in human at 6 mg/kg. The format is ADME, organism-based. The settings on record: in vivo.
Data set [41] concerns Streptococcus pneumoniae. Kind of data set: Antimicrobial activity against Streptococcus pneumoniae assessed as diameter of zone of inhibition by agar diffusion method. The format is functional.
Data set [42] relates to Bacillus subtilis. Kind of data set: Antimicrobial activity against Bacillus subtilis assessed as diameter of zone of inhibition by agar diffusion method. The format is functional.
For data set [43], the system named is Streptococcus pneumoniae. Kind of data set: Antimicrobial activity against Streptococcus pneumoniae assessed as reduction in cell growth by XTT assay. The format is functional, organism-based.
Data set [44] concerns Staphylococcus aureus. Kind of data set: Antimicrobial activity against Staphylococcus aureus assessed as reduction in cell growth by XTT assay. The format is functional, organism-based.

T1 sequence (P22303 whole entry): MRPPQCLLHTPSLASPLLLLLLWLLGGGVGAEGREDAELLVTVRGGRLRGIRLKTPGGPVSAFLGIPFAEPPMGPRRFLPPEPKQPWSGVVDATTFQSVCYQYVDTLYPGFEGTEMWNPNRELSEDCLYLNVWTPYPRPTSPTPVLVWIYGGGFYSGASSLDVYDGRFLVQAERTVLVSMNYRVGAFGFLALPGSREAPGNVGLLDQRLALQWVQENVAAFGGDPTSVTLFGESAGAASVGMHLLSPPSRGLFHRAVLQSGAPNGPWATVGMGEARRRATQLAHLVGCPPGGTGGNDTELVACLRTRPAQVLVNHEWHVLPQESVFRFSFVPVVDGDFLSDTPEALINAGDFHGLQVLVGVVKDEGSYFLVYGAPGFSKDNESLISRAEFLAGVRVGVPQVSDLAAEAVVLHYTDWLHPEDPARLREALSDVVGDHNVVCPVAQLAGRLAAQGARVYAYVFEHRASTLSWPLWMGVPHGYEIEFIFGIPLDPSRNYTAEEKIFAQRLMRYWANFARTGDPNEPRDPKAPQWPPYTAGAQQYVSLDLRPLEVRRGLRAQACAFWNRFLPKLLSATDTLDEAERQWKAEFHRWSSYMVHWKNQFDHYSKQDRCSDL
Cholinesterase, sequence (P06276 whole entry): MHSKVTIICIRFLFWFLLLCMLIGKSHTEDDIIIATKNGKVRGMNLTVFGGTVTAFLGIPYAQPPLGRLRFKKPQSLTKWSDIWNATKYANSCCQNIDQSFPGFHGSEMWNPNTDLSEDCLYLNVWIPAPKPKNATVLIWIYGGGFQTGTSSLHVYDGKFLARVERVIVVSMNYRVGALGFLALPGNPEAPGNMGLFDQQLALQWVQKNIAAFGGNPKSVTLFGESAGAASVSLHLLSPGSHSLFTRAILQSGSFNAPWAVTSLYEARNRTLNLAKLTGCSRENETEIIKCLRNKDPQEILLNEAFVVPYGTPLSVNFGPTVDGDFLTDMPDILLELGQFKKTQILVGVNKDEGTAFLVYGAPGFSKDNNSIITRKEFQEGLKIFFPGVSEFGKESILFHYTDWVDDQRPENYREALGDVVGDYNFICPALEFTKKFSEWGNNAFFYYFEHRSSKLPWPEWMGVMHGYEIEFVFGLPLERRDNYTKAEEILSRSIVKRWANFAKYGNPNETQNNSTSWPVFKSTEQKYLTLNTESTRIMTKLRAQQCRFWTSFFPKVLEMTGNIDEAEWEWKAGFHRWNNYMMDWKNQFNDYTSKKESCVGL
Amine oxidase [flavin-containing] B, sequence (P27338 whole entry, the tested form may be a part): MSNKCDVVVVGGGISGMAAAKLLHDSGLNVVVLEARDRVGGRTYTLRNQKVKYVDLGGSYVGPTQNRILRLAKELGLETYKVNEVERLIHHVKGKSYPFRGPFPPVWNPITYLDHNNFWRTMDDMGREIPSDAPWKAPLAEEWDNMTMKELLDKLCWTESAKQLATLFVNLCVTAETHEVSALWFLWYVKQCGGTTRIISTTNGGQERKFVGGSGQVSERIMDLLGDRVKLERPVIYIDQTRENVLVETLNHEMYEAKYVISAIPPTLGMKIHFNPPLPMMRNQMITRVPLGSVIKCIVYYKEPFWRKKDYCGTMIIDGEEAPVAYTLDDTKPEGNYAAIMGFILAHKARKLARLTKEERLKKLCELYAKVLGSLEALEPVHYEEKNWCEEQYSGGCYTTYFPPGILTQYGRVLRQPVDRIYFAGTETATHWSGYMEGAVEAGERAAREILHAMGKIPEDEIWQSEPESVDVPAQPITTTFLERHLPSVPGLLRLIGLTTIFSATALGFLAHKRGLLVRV
Beta-secretase 1, sequence (P56817 whole entry): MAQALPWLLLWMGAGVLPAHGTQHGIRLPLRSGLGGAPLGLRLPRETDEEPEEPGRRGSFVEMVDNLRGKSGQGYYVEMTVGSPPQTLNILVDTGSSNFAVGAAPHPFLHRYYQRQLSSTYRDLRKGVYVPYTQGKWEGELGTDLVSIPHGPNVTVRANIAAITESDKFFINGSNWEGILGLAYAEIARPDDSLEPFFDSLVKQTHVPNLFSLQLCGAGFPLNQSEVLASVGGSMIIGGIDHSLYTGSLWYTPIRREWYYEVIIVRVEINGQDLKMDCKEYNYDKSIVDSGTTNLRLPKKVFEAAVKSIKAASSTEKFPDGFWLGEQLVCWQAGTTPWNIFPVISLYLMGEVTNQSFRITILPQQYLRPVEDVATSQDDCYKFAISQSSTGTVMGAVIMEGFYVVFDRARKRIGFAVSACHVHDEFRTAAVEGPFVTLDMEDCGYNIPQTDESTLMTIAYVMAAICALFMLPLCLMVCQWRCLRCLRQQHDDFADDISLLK

Take `CN1CCC(=C2c3ccccc3CC(=O)c3sccc32)CC1` [KETOTIFEN]: the half-life in [1] is 3 h.

As usually defined, the pIC50 is the IC50 on a negative log10 scale, so that one unit is a factor of ten. Take `COC(=O)c1cc(C)cc2sc3cccc(OC)c3c12`: the negative-log IC50 (pIC50) in data set [2] is 6.22.

In the case of `NC(=S)N/N=C(\C=C\c1ccc(Cl)cc1Cl)c1cccs1`, the “inhibition zone (IZ)” value in data set [3] turned out to be 15 mm.

As for `COc1cccc(/C=N/NC(=O)c2cccs2)c1O`, the negative logarithm of the IC50 (pIC50) in data set [4], in [5], in [6] and in data set [7] was 6.09 throughout.

As for `CC(=O)c1c(Nc2ccc(C)cc2)sc(-c2nc3ccccc3c(=O)n2-c2ccc(Cl)cc2)c1C`, the Activity in [8] is given as 58.6%; in data set [9], 48.94%.

As a reminder, the IC50 is the concentration that gives 50% inhibition. For `O=C1S/C(=C\c2cccc(Cl)c2Cl)C(=O)N1Cc1nnc(-c2cccs2)o1`, the IC50 in data set [10] is 4.83 µg/mL (≈ 11 µM).

`Cc1cc2c(s1)Nc1ccccc1N=C2N1CCN(C)CC1` [OLANZAPINE]: the half-life in [11] is 21 h.

On to `O=C(NNC(=S)Nc1ccccc1[N+](=O)[O-])c1sccc1Cl`, for which the negative-log IC50 (pIC50) is 6.40 in [12] and 5.72 in [13].

`Clc1ccccc1CN1CCc2sccc2C1` [TICLOPIDINE]: in data set [14], the half-life was 7.9 h.

`COC(=O)[C@H](c1ccccc1Cl)N1CCc2sccc2C1` [CLOPIDOGREL] showed a half-life in data set [15] of 6 h.

Take `COc1ccc(C2=NNC(=O)c3c(sc(C(N)=O)c3C)N2)cc1`: the 50% inhibitory concentration (IC50) in data set [16] worked out at 4.37 µg/mL (≈ 13.2 µM).

Turning to `CCCCc1ncc(/C=C(\Cc2cccs2)C(=O)O)n1Cc1ccc(C(=O)O)cc1` [EPROSARTAN], the half-life in data set [17] is 5 h.

For the compound `CCN[C@H]1C[C@H](C)S(=O)(=O)c2sc(S(N)(=O)=O)cc21` [DORZOLAMIDE], in data set [18], the t1/2 came out at 4 months.

As for `Cc1cc2ccc(O)cc2n(NC(=O)c2sc3cc(F)ccc3c2N)c1=O`, the “inhibition zone (IZ)” value in [19] was 25 mm. Further, the zone of inhibition at 100 µg/mL came to 23 mm in data set [20], 22 mm in [21] and 26 mm in data set [22].

Consider `NC(N)=NCCC[C@@H](N)C(=O)N[C@@H](CCCN=C(N)N)C(=O)N1CCC[C@H]1C(=O)N1C[C@H](O)C[C@H]1C(=O)NCC(=O)N[C@@H](Cc1cccs1)C(=O)N[C@@H](CO)C(=O)N1Cc2ccccc2C[C@@H]1C(=O)N1[C@H](C(=O)N[C@@H](CCCN=C(N)N)C(=O)O)C[C@@H]2CCCC[C@@H]21` [ICATIBANT], for which the half-life in data set [23] was 1.4 h.

In turn, `O=C(Nc1ccsc1C(=O)N/N=C/c1ccc(F)cc1)c1ccc(Cl)cc1Cl` had a negative logarithm of the IC50 (pIC50) in data set [24] of 6.49.

Take `O=c1oc2cc(O)ccc2cc1-c1cc(Br)cs1`: the negative logarithm of the IC50 (pIC50) in data set [25] was 6.85.

For `NC1=C(C(=O)Nn2c(=O)cc(-c3ccccc3)c3ccc(O)cc32)SCC1`, the zone of inhibition at 100 µg/mL in data set [26] was 27 mm.

Take `CCCN(CCc1cccs1)[C@H]1CCc2c(O)cccc2C1` [ROTIGOTINE]: the half-life in [27] is 7 h.

As to `CN1CCN(CC(=O)Nc2sc3c(c2C#N)CCC(C(C)(C)C)C3)CC1` (centres undefined), the negative logarithm of the IC50 (pIC50) in data set [28] was 4.87; in data set [29], 6.17.

Regarding `N#CC(C#N)=NNc1sc2c(c1C1=NC(=O)C(Cc3ccc(Cl)cc3)S1)CCCC2` (centres undefined), the pIC50 in [30], in data set [31], in data set [32], in data set [33], in [34] and in data set [36] was 7.23 in each case. In data set [35], the IC50 at 24 h amounted to 59 nM.

In the case of `O=C(NC[C@H]1CN(c2ccc(N3CCOCC3=O)cc2)C(=O)O1)c1ccc(Cl)s1` [RIVAROXABAN], the half-life in data set [37] was 5 h.

In turn, `FC(F)(F)c1cccc(-c2cc(-c3cccs3)n(-c3ccc(Br)cc3)n2)c1` gave a pIC50 in data set [38] of 9.32.

Usually GI50 stands for the concentration at which growth is held to half of that of the control. In turn, `CCOC(=O)c1c(/N=C/c2ccc(Br)cc2)sc2c1CCCC2` yielded a concentration for 50% growth inhibition (GI50) in [39] of 8040 nM.

`CCN[C@H]1CN(CCCOC)S(=O)(=O)c2sc(S(N)(=O)=O)cc21` [BRINZOLAMIDE] gave a half-life in [40] of 111 h.

As for `CCOC(=O)c1c(Nc2ccccc2)sc(C2=CN3NCC=C3N2)c1-c1ccccc1`, the “inhibition zone (IZ)” value stood at 12.3 mm in data set [41] and 12.7 mm in [42].

Take `CCOC(=O)c1c(Nc2ccccc2)sc(Cc2ccc(-n3cnnn3)cc2)c1N`: the half-inhibitory concentration (IC50) in [43] is 9.83 µg/mL (≈ 23.4 µM); in data set [44] it was 7.62 µg/mL (≈ 18.1 µM).
